The source made the active and inactive calls.
Experiments:
Troponin, cardiac muscle = Troponin, cardiac muscle (Homo sapiens, UniProt P19429+P45379+P63316); assay: Fluorescence-based biochemical high throughput dose response assay for activators of the calcium sensitivity of cardiac Regulated Thin Filaments (RTF). [Related pubchem assays (depositor defined):AID493008, AID493018, AID504382, AID504383]; format: protein-complex assay
cells [1] = format: functional, cell-based
SUMO-activating enzyme [2] = biological target: T1, SUMO-activating enzyme (Homo sapiens, UniProt Q9UBT2); assay: SUMOylation inhibitor hit validation, confirmation, SUMOylation inhibitor project, biochemical, AlphaScreen (AID 2018); format: functional
T1 sequence (Q9UBE0 whole entry): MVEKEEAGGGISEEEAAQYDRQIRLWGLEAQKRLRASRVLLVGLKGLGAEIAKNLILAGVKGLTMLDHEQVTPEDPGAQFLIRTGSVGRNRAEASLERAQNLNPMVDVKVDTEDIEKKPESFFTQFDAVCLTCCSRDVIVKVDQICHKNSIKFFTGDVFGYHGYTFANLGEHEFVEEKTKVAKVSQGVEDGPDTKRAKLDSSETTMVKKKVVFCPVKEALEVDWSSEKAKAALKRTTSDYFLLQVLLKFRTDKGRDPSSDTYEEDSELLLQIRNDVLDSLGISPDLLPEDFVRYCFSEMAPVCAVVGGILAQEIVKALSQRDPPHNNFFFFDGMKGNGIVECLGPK
T1 sequence (Q9UBT2 whole entry): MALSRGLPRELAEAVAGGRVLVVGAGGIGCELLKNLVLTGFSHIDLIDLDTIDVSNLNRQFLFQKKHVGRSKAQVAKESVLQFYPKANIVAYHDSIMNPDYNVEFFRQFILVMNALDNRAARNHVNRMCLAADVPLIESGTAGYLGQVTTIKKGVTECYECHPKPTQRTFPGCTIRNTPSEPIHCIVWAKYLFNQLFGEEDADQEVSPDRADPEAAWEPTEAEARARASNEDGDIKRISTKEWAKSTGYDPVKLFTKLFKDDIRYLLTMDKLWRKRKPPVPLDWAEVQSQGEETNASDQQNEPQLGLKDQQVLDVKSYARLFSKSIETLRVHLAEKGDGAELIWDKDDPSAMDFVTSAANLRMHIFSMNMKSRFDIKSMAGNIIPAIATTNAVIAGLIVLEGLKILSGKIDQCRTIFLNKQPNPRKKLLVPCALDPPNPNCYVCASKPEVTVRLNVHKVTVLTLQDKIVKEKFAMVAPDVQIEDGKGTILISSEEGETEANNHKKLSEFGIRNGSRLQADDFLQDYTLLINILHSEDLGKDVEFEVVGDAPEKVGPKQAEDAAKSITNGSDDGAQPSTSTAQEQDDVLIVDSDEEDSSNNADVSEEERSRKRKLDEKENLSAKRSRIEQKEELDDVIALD

SUMO-activating enzyme [3] = biological target: T1, SUMO-activating enzyme; assay: inhibitors of in vitro SUMOylation cascade, primary screen, biochemical, HTRF, uHTS (AID 2006); format: protein-complex assay
cells [4] = format: functional, cell-based; remark: listed apart in the source
Exodeoxyribonuclease V = biological target: T2, Exodeoxyribonuclease V (Escherichia coli (strain K12), UniProt P04993+P07648+P08394); assay: E. coli RecBCD inhibitors, dose response, counter-screen for AddAB inhibitor project, absorbance, V66 E. coli, mutant T4 phage (AID 492957); format: functional, cell-based, Escherichia coli str. K-12 substr. MG1655
T2 sequence (P04993 whole entry): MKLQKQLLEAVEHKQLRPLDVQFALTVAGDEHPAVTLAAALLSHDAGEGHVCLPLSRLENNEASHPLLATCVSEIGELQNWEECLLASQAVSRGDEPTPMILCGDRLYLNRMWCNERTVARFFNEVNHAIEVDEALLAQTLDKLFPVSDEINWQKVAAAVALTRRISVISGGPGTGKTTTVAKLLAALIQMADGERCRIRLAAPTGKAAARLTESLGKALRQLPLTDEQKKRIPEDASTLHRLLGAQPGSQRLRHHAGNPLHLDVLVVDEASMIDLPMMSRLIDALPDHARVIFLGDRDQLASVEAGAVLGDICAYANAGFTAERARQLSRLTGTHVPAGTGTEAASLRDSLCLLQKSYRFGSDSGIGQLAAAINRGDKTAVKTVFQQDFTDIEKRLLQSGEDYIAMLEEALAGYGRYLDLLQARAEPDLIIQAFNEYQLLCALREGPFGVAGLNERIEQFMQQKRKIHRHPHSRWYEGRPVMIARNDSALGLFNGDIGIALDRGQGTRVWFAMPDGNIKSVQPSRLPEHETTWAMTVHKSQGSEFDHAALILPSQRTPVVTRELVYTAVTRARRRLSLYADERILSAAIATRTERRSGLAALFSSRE
T2 sequence (P07648 whole entry): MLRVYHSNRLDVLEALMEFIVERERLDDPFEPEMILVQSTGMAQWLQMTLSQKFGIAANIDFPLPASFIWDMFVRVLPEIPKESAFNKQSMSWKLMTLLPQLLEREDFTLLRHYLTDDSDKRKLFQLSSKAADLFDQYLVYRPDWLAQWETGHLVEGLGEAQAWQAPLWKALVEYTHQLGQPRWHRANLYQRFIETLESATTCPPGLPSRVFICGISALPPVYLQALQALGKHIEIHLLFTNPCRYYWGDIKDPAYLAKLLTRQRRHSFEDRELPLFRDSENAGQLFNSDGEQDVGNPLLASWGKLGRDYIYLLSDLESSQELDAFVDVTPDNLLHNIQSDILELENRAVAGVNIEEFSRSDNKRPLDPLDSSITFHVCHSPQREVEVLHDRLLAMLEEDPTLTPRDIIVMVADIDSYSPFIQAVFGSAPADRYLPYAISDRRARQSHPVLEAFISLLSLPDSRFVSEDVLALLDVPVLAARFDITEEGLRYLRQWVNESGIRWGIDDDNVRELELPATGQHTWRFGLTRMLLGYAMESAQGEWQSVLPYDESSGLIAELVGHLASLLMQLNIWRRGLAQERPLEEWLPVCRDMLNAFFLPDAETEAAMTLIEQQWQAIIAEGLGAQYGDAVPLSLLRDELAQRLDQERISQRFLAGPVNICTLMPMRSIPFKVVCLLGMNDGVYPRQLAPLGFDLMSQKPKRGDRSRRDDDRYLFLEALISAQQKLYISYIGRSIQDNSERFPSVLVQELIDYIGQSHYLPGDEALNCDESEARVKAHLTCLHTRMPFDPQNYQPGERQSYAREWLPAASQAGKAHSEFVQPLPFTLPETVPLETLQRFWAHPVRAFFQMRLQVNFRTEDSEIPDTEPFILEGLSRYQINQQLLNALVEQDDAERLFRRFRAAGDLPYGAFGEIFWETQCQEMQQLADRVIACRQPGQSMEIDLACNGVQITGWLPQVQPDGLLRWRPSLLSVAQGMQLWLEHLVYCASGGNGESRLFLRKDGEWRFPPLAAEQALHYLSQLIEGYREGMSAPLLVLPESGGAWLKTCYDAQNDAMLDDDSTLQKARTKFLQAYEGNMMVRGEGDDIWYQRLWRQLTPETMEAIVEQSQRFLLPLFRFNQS
T2 sequence (P08394 whole entry): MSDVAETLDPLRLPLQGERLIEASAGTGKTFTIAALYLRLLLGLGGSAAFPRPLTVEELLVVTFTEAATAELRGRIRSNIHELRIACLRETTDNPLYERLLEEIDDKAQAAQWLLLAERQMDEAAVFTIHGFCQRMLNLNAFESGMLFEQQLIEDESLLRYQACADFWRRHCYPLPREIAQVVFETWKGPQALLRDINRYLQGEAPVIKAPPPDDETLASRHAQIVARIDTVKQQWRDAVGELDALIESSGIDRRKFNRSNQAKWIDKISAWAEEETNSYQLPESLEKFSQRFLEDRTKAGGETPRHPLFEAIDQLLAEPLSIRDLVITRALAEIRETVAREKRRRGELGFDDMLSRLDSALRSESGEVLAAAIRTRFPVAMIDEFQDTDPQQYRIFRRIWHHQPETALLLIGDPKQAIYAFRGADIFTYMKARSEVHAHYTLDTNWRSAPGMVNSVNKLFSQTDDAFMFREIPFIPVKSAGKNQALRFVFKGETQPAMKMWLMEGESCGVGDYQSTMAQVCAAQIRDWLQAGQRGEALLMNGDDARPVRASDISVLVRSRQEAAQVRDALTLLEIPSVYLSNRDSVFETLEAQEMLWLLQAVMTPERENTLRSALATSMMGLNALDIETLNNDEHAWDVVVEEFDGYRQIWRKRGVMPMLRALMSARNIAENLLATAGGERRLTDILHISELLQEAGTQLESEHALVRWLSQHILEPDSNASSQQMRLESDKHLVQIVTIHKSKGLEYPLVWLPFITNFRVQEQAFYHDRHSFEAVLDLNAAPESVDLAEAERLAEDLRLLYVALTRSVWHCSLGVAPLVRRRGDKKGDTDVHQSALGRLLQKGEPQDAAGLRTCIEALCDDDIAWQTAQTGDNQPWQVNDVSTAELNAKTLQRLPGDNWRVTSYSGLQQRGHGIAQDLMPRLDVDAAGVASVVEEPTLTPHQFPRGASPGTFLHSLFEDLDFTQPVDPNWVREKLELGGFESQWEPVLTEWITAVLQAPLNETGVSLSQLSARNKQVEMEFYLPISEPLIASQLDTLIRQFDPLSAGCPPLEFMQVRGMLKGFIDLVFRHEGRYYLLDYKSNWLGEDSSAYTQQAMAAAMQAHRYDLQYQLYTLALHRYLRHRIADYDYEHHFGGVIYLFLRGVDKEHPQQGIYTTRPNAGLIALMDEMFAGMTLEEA

[5] = Counterscreen for AddAB inhibitors: absorbance-based bacterial cell-based high throughput dose response assay for inhibitors of bacterial viability. [Related pubchem assays (depositor defined):AID435030, AID449728, AID449731, AID488942, AID488955, AID488956]; format: functional
INS1 = assay: beta cell apoptosis inhibitors, cytokine rescue, dose response, luminescence, retest (AID 449756); format: functional, cell-based; conditions: Rattus norvegicus;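 note: cell death triggered by IL-1 beta plus TNF-alpha plus IFN-gamma mixture; protective hits raise ATP signal compared with cytokine alone wells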
[6] = Shn3 3'UTR reporter inhibitors, dose response, cell-based, Clone20 osteoblasts, firefly luciferase, cherry-picked (AID 624132); format: functional;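 note: firefly luciferase luminescence from reporter carrying the Shn3 3'UTR in osteoblasts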
[7] = HepG2 cell cytotoxicity, dose response, cytotoxicity control for Shn3 inhibitor project, CellTiter-Glo, cherry-picked (AID 624134); format: functional, cell-based
[8] = control 3'UTR Renilla luciferase suppression, dose response, counter-screen for Shn3 inhibitor project, cell-based, Clone20-Shn3RL, cherry-picked (AID 624133); format: functional
[9] = biological target: T3, 1-acylglycerol-3-phosphate O-acyltransferase ABHD5/Perilipin-5 (Homo sapiens, UniProt Q00G26+Q8WTS1); assay: Luminescence-based biochemical high throughput dose response assay for inhibitors of the interaction of the lipase co-activator protein, abhydrolase domain containing 5 (ABHD5) with perilipin-5 (MLDP; PLIN5) (2K validation set). [Related pubchem assays (depositor defined):AID493035, AID493241]
T3 sequence (Q00G26 whole entry): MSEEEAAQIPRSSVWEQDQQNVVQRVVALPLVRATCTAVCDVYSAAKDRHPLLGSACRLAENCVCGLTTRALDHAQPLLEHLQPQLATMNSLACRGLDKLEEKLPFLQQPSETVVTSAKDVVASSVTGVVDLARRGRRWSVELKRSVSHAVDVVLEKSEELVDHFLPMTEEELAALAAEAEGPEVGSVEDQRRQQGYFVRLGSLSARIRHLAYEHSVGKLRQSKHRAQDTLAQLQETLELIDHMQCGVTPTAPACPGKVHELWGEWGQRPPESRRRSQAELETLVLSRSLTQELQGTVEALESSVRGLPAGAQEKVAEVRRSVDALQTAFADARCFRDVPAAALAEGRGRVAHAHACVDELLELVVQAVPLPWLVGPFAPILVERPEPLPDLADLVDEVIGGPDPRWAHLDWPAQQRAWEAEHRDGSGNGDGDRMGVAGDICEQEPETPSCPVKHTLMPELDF
T3 sequence (Q8WTS1 whole entry): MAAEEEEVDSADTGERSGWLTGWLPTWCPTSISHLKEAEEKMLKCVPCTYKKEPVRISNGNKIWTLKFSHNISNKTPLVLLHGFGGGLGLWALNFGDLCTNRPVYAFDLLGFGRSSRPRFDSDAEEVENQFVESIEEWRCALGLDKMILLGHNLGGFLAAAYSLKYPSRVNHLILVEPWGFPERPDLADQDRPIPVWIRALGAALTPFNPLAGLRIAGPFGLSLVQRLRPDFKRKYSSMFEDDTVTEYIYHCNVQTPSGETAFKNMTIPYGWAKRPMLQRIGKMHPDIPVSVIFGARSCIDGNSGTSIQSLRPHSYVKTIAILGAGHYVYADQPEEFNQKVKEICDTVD

Perilipin-1/ABHD5 = biological target: T4, Perilipin-1/ABHD5 (Homo sapiens, UniProt O60240+Q8WTS1); assay: Luminescence-based biochemical high throughput dose response assay for inhibitors of the interaction of the lipase co-activator protein, abhydrolase domain containing 5 (ABHD5) with perilipin-1 (PLIN1) (2K validation set). [Related pubchem assays (depositor defined):AID493027, AID493057]
T4 sequence (Q8WTS1 whole entry): T3 sequence (Q8WTS1 whole entry)
T4 sequence (O60240 whole entry): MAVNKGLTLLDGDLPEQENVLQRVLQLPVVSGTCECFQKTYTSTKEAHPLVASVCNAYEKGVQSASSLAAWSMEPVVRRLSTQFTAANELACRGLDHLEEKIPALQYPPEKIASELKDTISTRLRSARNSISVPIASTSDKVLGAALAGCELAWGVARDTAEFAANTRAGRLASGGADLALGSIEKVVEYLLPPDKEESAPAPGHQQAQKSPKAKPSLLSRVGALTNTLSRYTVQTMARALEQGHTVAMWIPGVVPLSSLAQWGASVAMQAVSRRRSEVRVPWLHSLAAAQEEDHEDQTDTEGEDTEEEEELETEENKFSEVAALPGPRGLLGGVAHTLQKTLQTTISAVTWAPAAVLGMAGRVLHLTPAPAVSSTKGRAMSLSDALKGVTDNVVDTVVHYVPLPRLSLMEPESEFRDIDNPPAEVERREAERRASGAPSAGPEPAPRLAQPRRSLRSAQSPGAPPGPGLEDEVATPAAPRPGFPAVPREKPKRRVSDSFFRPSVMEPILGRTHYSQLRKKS

[10] = biological target: Intestinal-type alkaline phosphatase (Homo sapiens, UniProt P09923); assay: Dose Response confirmation of uHTS hits from a small molecule inhibitors of human intestinal alkaline phosphatase via a luminescent assay. [Related pubchem assays (depositor defined):AID2544, AID2574]; format: functional
Chain of Intestinal-type alkaline phosphatase (P09923 whole entry): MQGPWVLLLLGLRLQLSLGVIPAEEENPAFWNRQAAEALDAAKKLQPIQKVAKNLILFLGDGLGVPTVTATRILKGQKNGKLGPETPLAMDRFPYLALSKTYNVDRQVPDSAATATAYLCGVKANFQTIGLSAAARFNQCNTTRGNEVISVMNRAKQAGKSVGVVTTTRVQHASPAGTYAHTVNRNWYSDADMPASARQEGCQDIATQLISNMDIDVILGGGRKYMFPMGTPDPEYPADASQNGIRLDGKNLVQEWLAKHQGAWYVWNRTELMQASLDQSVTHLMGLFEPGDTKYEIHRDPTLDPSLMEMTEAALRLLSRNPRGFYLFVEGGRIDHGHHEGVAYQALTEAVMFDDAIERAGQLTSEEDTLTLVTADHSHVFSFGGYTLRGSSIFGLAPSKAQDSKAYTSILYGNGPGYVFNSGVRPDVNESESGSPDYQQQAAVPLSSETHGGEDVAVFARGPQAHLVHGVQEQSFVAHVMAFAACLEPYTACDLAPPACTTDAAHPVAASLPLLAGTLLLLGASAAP

[11] = biological target: T5, Voltage-gated N-type calcium channel alpha-1B subunit/Amyloid beta A4 precursor protein-binding family A member 1 (Homo sapiens, UniProt Q00975+Q02410); format: protein assay
T5 sequence (Q00975 whole entry): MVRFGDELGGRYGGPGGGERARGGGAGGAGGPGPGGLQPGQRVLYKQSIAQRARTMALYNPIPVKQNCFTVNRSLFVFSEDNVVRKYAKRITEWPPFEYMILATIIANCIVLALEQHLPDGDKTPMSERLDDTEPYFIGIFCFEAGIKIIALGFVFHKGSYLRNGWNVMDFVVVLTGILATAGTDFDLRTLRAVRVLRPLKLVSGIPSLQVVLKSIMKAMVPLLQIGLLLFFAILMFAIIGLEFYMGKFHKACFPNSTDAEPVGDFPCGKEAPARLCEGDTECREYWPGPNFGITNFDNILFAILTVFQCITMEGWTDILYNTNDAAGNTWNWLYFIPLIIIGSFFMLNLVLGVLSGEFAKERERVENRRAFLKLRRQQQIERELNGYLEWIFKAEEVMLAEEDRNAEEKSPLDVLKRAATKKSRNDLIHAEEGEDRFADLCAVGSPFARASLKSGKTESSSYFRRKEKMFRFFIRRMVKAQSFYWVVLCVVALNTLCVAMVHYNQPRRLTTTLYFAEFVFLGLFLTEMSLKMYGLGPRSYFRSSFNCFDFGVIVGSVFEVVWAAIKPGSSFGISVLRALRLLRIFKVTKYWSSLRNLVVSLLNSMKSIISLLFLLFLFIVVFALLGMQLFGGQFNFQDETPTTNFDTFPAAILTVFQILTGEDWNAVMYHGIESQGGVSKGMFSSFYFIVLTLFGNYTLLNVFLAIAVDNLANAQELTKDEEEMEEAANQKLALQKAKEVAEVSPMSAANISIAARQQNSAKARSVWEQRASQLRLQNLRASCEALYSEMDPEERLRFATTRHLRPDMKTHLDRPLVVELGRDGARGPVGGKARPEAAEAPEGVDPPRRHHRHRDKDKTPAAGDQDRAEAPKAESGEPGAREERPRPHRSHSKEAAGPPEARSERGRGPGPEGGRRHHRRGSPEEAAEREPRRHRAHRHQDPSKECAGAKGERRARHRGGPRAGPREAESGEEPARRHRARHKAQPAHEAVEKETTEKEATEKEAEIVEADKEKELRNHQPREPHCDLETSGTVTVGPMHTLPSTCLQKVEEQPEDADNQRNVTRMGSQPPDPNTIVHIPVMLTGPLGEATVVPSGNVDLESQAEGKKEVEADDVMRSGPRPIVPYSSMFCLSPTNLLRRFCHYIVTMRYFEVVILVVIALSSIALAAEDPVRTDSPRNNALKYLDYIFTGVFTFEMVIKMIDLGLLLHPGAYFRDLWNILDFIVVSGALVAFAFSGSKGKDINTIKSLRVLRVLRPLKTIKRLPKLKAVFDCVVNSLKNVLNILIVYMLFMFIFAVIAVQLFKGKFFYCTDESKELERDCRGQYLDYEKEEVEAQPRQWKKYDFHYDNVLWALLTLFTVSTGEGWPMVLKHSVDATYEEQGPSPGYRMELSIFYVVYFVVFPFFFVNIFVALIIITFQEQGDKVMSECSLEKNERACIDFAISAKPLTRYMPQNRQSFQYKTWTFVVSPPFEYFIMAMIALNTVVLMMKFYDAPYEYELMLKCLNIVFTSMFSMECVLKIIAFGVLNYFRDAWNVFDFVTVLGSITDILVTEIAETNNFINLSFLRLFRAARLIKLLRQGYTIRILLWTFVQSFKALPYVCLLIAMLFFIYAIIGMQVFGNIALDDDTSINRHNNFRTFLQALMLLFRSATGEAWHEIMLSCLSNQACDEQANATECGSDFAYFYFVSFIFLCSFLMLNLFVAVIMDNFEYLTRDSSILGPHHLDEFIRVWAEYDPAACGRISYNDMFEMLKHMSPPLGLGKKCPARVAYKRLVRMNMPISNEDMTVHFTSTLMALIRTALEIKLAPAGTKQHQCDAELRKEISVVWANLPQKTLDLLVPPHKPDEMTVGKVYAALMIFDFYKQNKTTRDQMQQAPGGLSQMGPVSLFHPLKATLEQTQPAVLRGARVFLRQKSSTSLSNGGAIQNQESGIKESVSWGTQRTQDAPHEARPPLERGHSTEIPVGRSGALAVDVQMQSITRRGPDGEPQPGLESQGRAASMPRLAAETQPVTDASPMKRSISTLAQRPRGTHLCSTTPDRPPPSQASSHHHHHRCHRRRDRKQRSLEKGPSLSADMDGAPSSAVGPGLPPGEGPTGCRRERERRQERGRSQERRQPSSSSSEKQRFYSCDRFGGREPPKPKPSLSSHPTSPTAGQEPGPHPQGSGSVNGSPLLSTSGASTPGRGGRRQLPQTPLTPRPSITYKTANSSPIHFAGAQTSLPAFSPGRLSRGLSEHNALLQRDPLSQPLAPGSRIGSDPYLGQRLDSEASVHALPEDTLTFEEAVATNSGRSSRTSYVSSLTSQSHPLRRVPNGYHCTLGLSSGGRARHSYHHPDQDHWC
T5 sequence (Q02410 whole entry): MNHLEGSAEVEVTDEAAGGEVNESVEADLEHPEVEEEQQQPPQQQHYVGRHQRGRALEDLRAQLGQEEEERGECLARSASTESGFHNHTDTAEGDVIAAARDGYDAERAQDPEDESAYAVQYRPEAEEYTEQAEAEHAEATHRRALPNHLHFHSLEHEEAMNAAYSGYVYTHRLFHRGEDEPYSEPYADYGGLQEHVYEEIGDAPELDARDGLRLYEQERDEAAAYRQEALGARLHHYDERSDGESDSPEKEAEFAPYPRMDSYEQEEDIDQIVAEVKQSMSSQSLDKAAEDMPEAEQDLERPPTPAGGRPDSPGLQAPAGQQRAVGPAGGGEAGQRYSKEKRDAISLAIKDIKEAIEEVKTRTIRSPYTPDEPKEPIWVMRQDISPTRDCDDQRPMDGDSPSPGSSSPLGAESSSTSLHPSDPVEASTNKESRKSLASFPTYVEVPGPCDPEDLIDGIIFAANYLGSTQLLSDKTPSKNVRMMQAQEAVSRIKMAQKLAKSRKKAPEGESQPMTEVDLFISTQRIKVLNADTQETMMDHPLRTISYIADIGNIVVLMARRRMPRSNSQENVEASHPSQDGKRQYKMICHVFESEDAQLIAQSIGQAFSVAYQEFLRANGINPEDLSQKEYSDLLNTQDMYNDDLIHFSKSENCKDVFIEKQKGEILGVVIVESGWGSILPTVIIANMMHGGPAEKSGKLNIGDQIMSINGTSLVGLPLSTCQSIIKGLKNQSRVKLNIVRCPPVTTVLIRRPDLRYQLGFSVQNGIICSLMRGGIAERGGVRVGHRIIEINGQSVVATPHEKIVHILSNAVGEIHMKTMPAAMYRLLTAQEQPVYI

[12] = biological target: T5, Voltage-gated N-type calcium channel alpha-1B subunit/Amyloid beta A4 precursor protein-binding family A member 1; format: protein assay; remark: listed apart in the source

Structure (SMILES): COc1cc(N2CCCC2)c(OC)cc1/C=C1/NC(=S)NC1=O
- EC50 (Troponin, cardiac muscle): 1.14 µM (active)

Structure (SMILES): CCCCC(=O)NC(c1ccccc1Cl)c1ccc2cccnc2c1O (configuration not stated)
- EC50 (cells [1]): 8.93 µM (active)
- IC50 (SUMO-activating enzyme [2]): 9.96 µM (active)
- IC50 (SUMO-activating enzyme [3]): > 100 µM (inactive)
- EC50 (cells [4]): > 350 µM (not active)
- IC50 (Exodeoxyribonuclease V): > 119 µM (inactive)
- IC50 [5]: > 119 µM (inactive)
- AC50 (INS1): 0.645 µM (active)
- AC50 [6]: 1.12 µM (active)
- AC50 [7]: 3.56 µM (active)
- AC50 [8]: 0.856 µM (active)

Structure (SMILES): CSCCC(NC(=O)OC(C)(C)C)C(=O)Oc1ccc2c(=O)c(-c3ccc4c(c3)OCCO4)coc2c1 (configuration not stated)
- IC50 [9]: 3.94 µM (active)
- IC50 (Perilipin-1/ABHD5): 2.99 µM (active)

Structure (SMILES): O=C(O)COn1c(-c2ccc(Cl)cc2)nc2ccc(Cl)cc21
- IC50 [10]: > 100 µM (inactive)

Structure (SMILES): O=C(CCN1C(=O)/C(=C/c2ccccc2Cl)SC1=S)NC1CCS(=O)(=O)C1 (configuration not stated)
- IC50 [11]: 5.22 µM (active)
- IC50 [12]: > 50 µM (inactive)

Structure (SMILES): COc1ccc(N2C(=O)NC(=O)/C(=C\c3c[nH]c4ccccc34)C2=O)cc1
- IC50 [11]: 23.7 µM (active)
- IC50 [12]: > 50 µM (inactive)

Structure (SMILES): Cc1cc(C)n(C(=O)C23CC4CC(CC(C4)C2)C3)n1
- IC50 [10]: > 100 µM (inactive)

Structure (SMILES): COc1ccc2[nH]c(-c3ccccn3)nc2c1
- EC50 (Troponin, cardiac muscle): > 71.5 µM (inactive)

Structure (SMILES): COc1ccc(/C=C2\CC/C(=C\c3ccc(OC)c(OC)c3)C2=O)cc1OC
- IC50 [9]: 5.24 µM (active)
- IC50 (Perilipin-1/ABHD5): 5.6 µM (active)

Reference: ChEMBL document CHEMBL1201862, “PubChem BioAssay data set” (2004)
